The target of this assay is T1, human LCE (Homo sapiens, UniProt Q9H5J4).
T1 sequence (Q9H5J4 1-265): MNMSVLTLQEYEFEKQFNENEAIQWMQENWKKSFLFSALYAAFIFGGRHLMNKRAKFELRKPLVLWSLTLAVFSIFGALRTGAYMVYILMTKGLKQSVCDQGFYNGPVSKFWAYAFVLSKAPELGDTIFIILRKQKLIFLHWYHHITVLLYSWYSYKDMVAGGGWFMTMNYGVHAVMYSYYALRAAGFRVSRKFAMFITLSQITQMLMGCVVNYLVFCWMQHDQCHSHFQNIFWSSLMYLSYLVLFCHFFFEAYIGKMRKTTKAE
The assay can be described thus: LCE enzymatic activity inhibition test. Type of assay: biochemical. To be noted: human LCE enzyme, palmitoyl-CoA and [14C]-malonyl-CoA as substrates, pH 6.5, 37° C. for 90 minutes. On the procedure:
An LCE enzymatic activity inhibition test was carried out by a modified method of Moon (J. Biol. Chem., Vol. 276, pp. 45358-45366, (2001)) et al. That is, the diluted test compound was added to a 96-well assay plate (Corning, 96-Well Assay Block) in an amount of 1.0 μL per well, and thereafter, 50 μL of a phosphate buffer solution (a 100 mM potassium phosphate buffer solution (pH 6.5)), 25 μL of a substrate solution (a 100 mM potassium phosphate buffer solution (pH 6.5), 4.0 μM rotenone, 80 μM fatty acid-free bovine serum albumin, 160 μM palmitoyl-CoA, 80 μM malonyl-CoA, 3.5 μM [^14C]-malonyl-CoA (1.92 GBq/mmol, manufactured by Amersham, Inc.)) was added to each well, and further, 25 μL of an enzyme solution (a 100 mM potassium phosphate buffer solution (pH 6.5), 100 μg/mL human LCE) was added thereto. Then, the upper part of the plate was hermetically closed with a seal member, and the plate was incubated at 37° C. for 90 minutes while gently shaking and stirring. Thereafter, to each well, 100 μL of 5 N HCl was added and the assay plate was stirred at room temperature for 5 minutes, whereby the enzymatic reaction was stopped and also acyl-CoA was hydrolyzed. Thereafter, the enzymatic reaction solution in each well was adsorbed to each well of a 96-well GF/C filter plate (PerkinElmer, Unifilter 96GF/C) through which water had been passed in advance, and then, each well was washed with water to remove unadsorbed malonyl-CoA and the GF/C filter plate was dried at 50° C. for 60 minutes. Thereafter, to each well, 30 μL of a scintillator (PerkinElmer, Microscinti 0) was added and the upper part of the plate was sealed, and the radioactivity of the fixed [^14C] was measured using a microplate scintillation counter (PerkinElmer, Top Count) from which the enzymatic activity was determined The human LCE enzyme inhibitory activity of the test compound was calculated using the radioactivity obtained from a well to which DMSO containing no test compound is added as a control.

Data on 13 molecules can be found in patent publication US8314094B2, “Benzoxazinone derivative” (MSD K.K, priority 2007, dated 2012).

Structures are written as SMILES.

A word on the IC50: it is the midpoint of a concentration-inhibition curve. In turn, `Cn1cc(-c2ccc3c(c2)C(CNC(=O)c2ccc(F)cc2)(C(F)(F)F)OC(=O)N3)cn1` (single isomer, unassigned) [Example 133, (4S*)-4-fluoro-N-{[6-(1-methyl-1H-pyrazol-4-yl)-2-oxo-4-(trifluoromethyl)-1,4-dihydro-2H-3,1-benzoxazin-4-yl]methyl}benzamide] came in with an IC50 of 119 nM. `Cc1ccn(-c2ccc3c(c2)C(CNC(=O)c2ccc(F)cc2)(C(F)(F)F)OC(=O)N3)n1` (stereo not shown) [Example 178, 4-fluoro-N-{[6-(3-methyl-1H-pyrazol-1-yl)-2-oxo-4-(trifluoromethyl)-1,4-dihydro-2H-3,1-benzoxazin-4-yl]methyl}benzamide]: the IC50 was found to be 7.3 nM. Under `O=C1Nc2ccc(-c3cc[nH]n3)cc2C(CNS(=O)(=O)c2ccc(F)cc2)(C(F)(F)F)O1` (single isomer, unassigned) [Example 150, 4-fluoro-N-{[(4S*)-2-oxo-6-(1H-pyrazol-3-yl)-4-(trifluoromethyl)-1,4-dihydro-2H-3,1-benzoxazin-4-yl]methyl}benzenesulfonamide] stands 17 nM; under `CN1CCN(c2ccc3c(c2)C(CNC(=O)c2ccc(F)cc2)(C(F)(F)F)OC(=O)N3)C1=O` (stereo not shown) [Example 174, 4-fluoro-N-{[6-(3-methyl-2-oxazolidin-1-yl)-2-oxo-4-(trifluoromethyl)-1,4-dihydro-2H-3,1-benzoxazin-4-yl]methyl}benzamide], 5.3 nM; under `O=C1Nc2ccc(-c3cccs3)cc2C(CNC(=O)c2ccc(F)cc2)(C(F)(F)F)O1` (stereo not shown) [Example 147, 4-fluoro-N-{[2-oxo-6-(2-thienyl)-4-(trifluoromethyl)-1,4-dihydro-2H-3,1-benzoxazin-4-yl]methyl}benzamide], 13 nM. The same measure for `O=C1Nc2ccc(-c3ccn[nH]3)cc2C(CNC(=O)c2ccc(F)cc2)(C(F)(F)F)N1` (single isomer, unassigned) [Example 182, 4-fluoro-N-{[(4S*)-2-oxo-6-(1H-pyrazol-5-yl)-4-(trifluoromethyl)-1,2,3,4-tetrahydroquinazolin-4-yl]methyl}benzamide]: 6.6 nM; for `O=C1Nc2ccc(Cl)cc2C(CNC(=O)c2ccc(F)cc2)(C(F)(F)F)N1` (single isomer, unassigned) [Example 187, N-{[(4S*)-6-chloro-2-oxo-4-(trifluoromethyl)-1,2,3,4-tetrahydroquinazolin-4-yl]methyl}4-fluorobenzamide]: 45 nM; for `O=C1Nc2ccc(Cl)cc2C(CCNS(=O)(=O)c2ccccn2)(C(F)(F)F)O1` (single isomer, unassigned) [Example 120, N-{2-[(4R*)-6-chloro-2-oxo-4-(trifluoromethyl)-1,4-dihydro-2H-3,1-benzoxazin-4-yl]ethyl}pyridine-2-sulfonamide]: 5.4 nM. The molecule `O=C1Nc2ccc(Cl)cc2C(CCCNC(=O)c2ccc(F)cc2)(C(F)(F)F)O1` (single isomer, unassigned) [Example 33, N-{3-[(4R*)-6-chloro-2-oxo-4-(trifluoromethyl)-1,4-dihydro-2H-3,1-benzoxazin-4-yl]propyl}-4-fluorobenzamide] showed an IC50 of 17 nM. Under `O=C1Nc2ccc(Cl)cc2C(CCCNS(=O)(=O)c2ccccn2)(C(F)(F)F)O1` (single isomer, unassigned) [Example 119, N-{3-[(4R*)-6-chloro-2-oxo-4-(trifluoromethyl)-1,4-dihydro-2H-3,1-benzoxazin-4-yl]propyl}pyridine-2-sulfonamide] stands 128 nM. `O=C1Nc2ccc(-c3cc[nH]n3)cc2C(CNS(=O)(=O)c2ccccn2)(C(F)(F)F)O1` (single isomer, unassigned) [Example 151, N-{[(4S*)-2-oxo-6-(1H-pyrazol-3-yl)-4-(trifluoromethyl)-1,4-dihydro-2H-3,1-benzoxazin-4-yl]methyl}pyridine-2-sulfonamide] yielded a concentration for half-maximal inhibition (IC50) of 16 nM. The same measure for `O=C1Nc2ccc(-c3ccco3)cc2C(CNC(=O)c2ccc(F)cc2)(C(F)(F)F)O1` (stereo not shown) [Example 146, 4-fluoro-N-{[6-(2-furyl)-2-oxo-4-(trifluoromethyl)-1,4-dihydro-2H-3,1-benzoxazin-4-yl]methyl}benzamide]: 14 nM; for `O=C1Nc2ccc(Cl)cc2C(CCNC(=O)c2ccc(F)cc2)(C(F)(F)F)O1` (single isomer, unassigned) [Example 32, N-{2-[(4R*)-6-chloro-2-oxo-4-(trifluoromethyl)-1,4-dihydro-2H-3,1-benzoxazin-4-yl]ethyl}-4-fluorobenzamide]: 22 nM.
